For data set [1] the following is noted: 298.15 K; 101.33 kPa; Liquid.
Data set [2] is described as follows: xn = mol fraction of the nth substance listed. The settings on record: 298.15 K, 101.33 kPa, Liquid, Vibrating tube method.

Values joined by “and” are separate entries in the source; they are usually repeats but may differ in a detail not shown here. Equal entries are not always repeated. ± gives the expanded uncertainty stated by the source.

Consider `CC#N` [acetonitrile], for which, in data set [1], the mass density was determined as 776.69 ± 0.62 kg/m3.
Take `O=C1OCCO1` [ethylene carbonate] + COCCOC: in data set [2] (x2 = 0.4158), the mass density was 1099.62 ± 0.57 kg/m3 and 1099.78 ± 0.56 kg/m3 and 1100.01 ± 0.56 kg/m3.
On to `C1CCOC1` [tetrahydrofuran], for which the mass density in data set [1] worked out at 882.01 ± 0.54 kg/m3.
On to `O=C1OCCO1` [ethylene carbonate] + CC#N, for which, in data set [2] (x2 = 0.5533), the mass density was 1070.54 ± 0.55 kg/m3 and 1071.16 ± 0.54 kg/m3.
On to `COCCOC` [1,2-dimethoxyethane], for which the mass density in data set [1] amounted to 861.43 ± 0.56 kg/m3.
Take `O=C1OCCO1` [ethylene carbonate] + CCOC(C)=O: in data set [2] (x2 = 0.4577), the mass density is 1118.46 ± 0.58 kg/m3 [middle of 4 runs].
For `O=C1OCCO1` [ethylene carbonate] + C1CCOC1, the mass density in data set [2] (x2 = 0.4631) is 1110.32 ± 0.57 kg/m3 and 1109.98 ± 0.57 kg/m3 and 1109.85 ± 0.57 kg/m3.
Take `CCOC(C)=O` [ethyl acetate]: the mass density in data set [1] is 894.51 ± 0.54 kg/m3.

The values are drawn from the NIST ThermoML archive (doi:10.1016/j.jct.2003.09.005).
